Measured values reported in US20260048142A1, “METAL-CHELATED POLYPHENOL COMPLEX NANOPARTICLE, DRUG-LIPID PARTICLE, PREPARATION METHODS FOR THE SAME, AND USES THEREOF” (priority 2022, published 2026).
pIC50: −log10 of the molar value. Like-named read-outs stand apart in the source and are kept apart here.

Tested on: 293T cells
Assay: CCK8 cell activity, median lethal dose IC50
Assay type: cell-based, Human
Description: After incubating 293T cells with different concentrations of the metal-chelated polyphenol complex ([…]), cationic lipid (DOTAP, 0, 0.1, 0.3, 0.9, 2.7, 8.1, 24.3, 72.9, 218.7 μM) and ionizable lipid (ALC0315, 0, 0.1, 0.3, 0.9, 2.7, 8.1, 24.3, 72.9, 218.7 μM) for 48 hours, cell activity was detected using a CCK8 activity detection kit, and the median lethal dose IC50 of the metal-chelated polyphenol complex, cationic lipid (DOTAP) and ionizable lipid (ALC0315) for 293T cells was calculated respectively.
• Cell culture: cells were cultivated with DMEM culture medium containing 10% FBS and 1% Penicillin-Streptomycin Solution, and wait until the cell density reached 80%-90% of the culture bottle; • The remaining culture medium in the culture bottle was washed with PBS, the culture bottle was added with trypsin, and quickly transferred to a 37° C. incubator containing 5% CO2. During close observation, when the cells become slightly round, culture medium was added to stop digestion. The mixture was transferred to a centrifuge tube, centrifuged at 1500 RPM for 5 minutes, and the cells were resuspended with fresh culture medium; • Counting: the cell suspension was diluted to 10,0000 cells per 1 mL according to the purpose, 100 μL per well in a 96-well plate, and at least 5 replicates per group. Drug was added after 24 h of incubation at 37° C., 5% CO2; • After drug incubation for 48 h, 10% CCK8 was added, incubated for 1-3 h, and absorbance was measured by an ELISA reader at 450 nm;
[formula] • IC50 calculation method: with survival rate as the ordinate and drug concentration as the abscissa, IC50 was calculated by Graphpad using [Inhibitor] vs. normalized response-Variable slope analysis method.
The calculation method of IC50 is as described in Example 10.

Compound	pIC50 (Homo sapiens, HEK-293T, 48 h)	pIC50 (Homo sapiens, HEK-293T, Table 4-3, median lethal dose for 293T cells, CCK8, read-out: IC50)	pIC50 (Table 2-2, median lethal dose for 293T cells, 48 hours, CCK8, read-out: IC50)	pIC50 (Table 4-3, median lethal dose for 293T cells, CCK8, read-out: IC50)
CCCCCCCCC(CCCCCC)C(=O)OCCCCCCN(CCCCO)CCCCCCOC(=O)C(CCCCCC)CCCCCCCC (stereo not shown) [ALC0315]	3.94	3.94	–	–
CCCCCCCC/C=C\CCCCCCCC(=O)OCC(C[N+](C)(C)C)OC(=O)CCCCCCC/C=C\CCCCCCCC (stereo not shown) [DOTAP, N-(2,3-dioleoyloxy) propyl)-N,N, N-trimethylammonium chloride]	–	–	4.59	4.59
